Tests used:
PIP4K2B [1] = molecular target: T1, PIP4K2B (Homo sapiens, UniProt P78356); assay: Proteomics analysis (TMT LC-MS3) of Molt4 cells, PIP4K2B abundance; conditions: 1 μM, 5 h
T1 sequence (P78356 1-416): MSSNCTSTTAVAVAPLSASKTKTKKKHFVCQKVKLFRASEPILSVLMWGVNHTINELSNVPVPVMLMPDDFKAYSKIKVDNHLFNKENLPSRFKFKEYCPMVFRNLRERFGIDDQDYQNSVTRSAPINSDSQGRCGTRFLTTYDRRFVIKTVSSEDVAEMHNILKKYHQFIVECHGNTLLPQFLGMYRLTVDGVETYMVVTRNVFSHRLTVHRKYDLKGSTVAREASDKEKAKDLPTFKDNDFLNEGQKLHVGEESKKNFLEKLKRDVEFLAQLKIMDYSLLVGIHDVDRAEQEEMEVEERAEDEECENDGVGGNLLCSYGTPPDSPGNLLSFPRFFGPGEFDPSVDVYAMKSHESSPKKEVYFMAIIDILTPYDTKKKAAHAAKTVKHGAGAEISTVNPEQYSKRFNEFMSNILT
Method: (§1) Molt4 cells were treated with DMSO or the indicated compound for 5 h, and cells were harvested by centrifugation. […] The homogenized sample was clarified by centrifugation at 20,000×g for 10 min at 4° C. A micro-BCA assay (Pierce™) was used to determine the final protein concentration in the cell lysate. […] Proteins were precipitated using methanol/chloroform. In brief, four volumes of methanol were added to the cell lysate, followed by one volume of chloroform, and finally three volumes of water. The mixture was vortexed and centrifuged at 14,000×g for 5 min to separate the chloroform phase from the aqueous phase. […] The sample channels were combined in a 1:1:1:1:1:1:1:1:1:1 ratio, desalted using C18 solid phase extraction cartridges (Waters®) and analyzed by liquid chromatography-mass spectrometry (LC-MS) for channel ratio comparison. Samples were then combined using the adjusted volumes determined in the channel ratio analysis and dried down in a speed vacuum. […]
(§2) Proteome Discoverer™ 2.2 (Thermo Fisher) was used for RAW file processing and controlling peptide and protein level false discovery rates, assembling proteins from peptides, and protein quantification from peptides. […] TMT reporter ion intensities were measured using a 0.003 Da window around the theoretical m z for each reporter ion in the MS3 scan. […]

PIP4K2B [2] = molecular target: T1, PIP4K2B; assay: IC50 for bifunctional compound 1, PIP4K2B (biochemical binding affinity)
PIP4K2A [3] = molecular target: T2, PIP4K2A (Homo sapiens, UniProt P48426); assay: IC50 for bifunctional compound 1, PIP4K2A (biochemical binding affinity)
T2 sequence (P48426 1-406): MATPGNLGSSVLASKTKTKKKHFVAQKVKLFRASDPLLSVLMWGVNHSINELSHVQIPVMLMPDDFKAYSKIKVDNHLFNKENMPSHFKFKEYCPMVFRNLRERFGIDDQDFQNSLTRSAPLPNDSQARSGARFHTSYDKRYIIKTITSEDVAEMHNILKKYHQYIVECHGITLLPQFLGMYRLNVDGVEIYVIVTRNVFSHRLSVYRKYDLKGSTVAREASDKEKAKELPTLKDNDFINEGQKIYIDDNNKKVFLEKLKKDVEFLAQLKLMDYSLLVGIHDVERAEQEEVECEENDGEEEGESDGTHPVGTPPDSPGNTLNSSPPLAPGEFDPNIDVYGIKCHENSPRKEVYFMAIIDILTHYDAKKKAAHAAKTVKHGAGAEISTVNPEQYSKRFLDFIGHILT

[4] = molecular target: T3, ETS2 Repressor Factor (ERF) (Homo sapiens, UniProt P50548); assay: Proteomics analysis (TMT LC-MS3) of Molt4 cells, ERF; conditions: 1 μM, 5 h
T3 sequence (P50548 1-548): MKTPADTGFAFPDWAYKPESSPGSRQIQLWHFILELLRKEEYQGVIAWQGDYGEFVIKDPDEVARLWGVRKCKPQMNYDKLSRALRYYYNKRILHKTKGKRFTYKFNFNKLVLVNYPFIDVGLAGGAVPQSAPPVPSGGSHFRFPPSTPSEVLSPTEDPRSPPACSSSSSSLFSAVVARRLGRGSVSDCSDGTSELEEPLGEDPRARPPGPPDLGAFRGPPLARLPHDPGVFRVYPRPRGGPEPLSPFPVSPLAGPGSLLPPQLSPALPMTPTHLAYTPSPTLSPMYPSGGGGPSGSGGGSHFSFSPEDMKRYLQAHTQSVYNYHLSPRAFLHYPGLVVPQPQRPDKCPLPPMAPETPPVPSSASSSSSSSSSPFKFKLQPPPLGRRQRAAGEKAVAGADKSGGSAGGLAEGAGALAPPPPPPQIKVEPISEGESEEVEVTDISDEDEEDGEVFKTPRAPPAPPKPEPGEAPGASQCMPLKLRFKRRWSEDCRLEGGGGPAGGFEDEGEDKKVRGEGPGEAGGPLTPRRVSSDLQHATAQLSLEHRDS
Method: as §1, §2

[5] = molecular target: T3, ETS2 Repressor Factor (ERF); assay: Immunoblot of ERF degradation in Molt4 cells (FIG. 1D); assay type: cell-based; set-up: immunoblot of PIP4K2A, PIP4K2B, PIP4K2C, and ERF degradation in Molt4 cells; endogenous in cells; host or cells: Molt4; conditions: 6 h or 8 h
Method: Molt4 cells were treated with the indicated compounds for the indicated time in FIG. 1A-FIG. 1F and FIG. 3A-FIG. 3B. Cells were lysed in M-PER™ buffer (Thermo Scientific) containing protease/phosphatase inhibitor cocktail (Roche®). Protein concentration was measured using a bicinchoninic acid (BCA) assay (Pierce™). Equivalent amounts of each sample were loaded on 4-12% Bis-Tris gels (Invitrogen™), transferred to nitrocellulose membranes, and immunoblotted with antibodies against the indicated proteins. IRDye®800-labeled goat anti-rabbit IgG and IRDye®680-labeled goat anti-mouse IgG (LI-COR®) secondary antibodies were purchased for LI-COR®, and membranes were detected on an Odyssey® detection system (LI-COR® Biosciences).

PIP4K2A [6] = molecular target: T2, PIP4K2A; assay: Proteomics analysis (TMT LC-MS3) of Molt4 cells, PIP4K2A abundance; conditions: 1 μM, 5 h
Method: as §1, §2

change in abundance of PIP4K2B (proteomics) (PIP4K2B [1]): no detectable change in abundance | IC50 (PIP4K2B [2]): 14 µM | IC50 (PIP4K2A [3]): > 10 µM | ERF degradation, as seen in FIG. 1D [5]: scored as a potential degraded protein | change in abundance of PIP4K2A (proteomics) (PIP4K2A [6]): no detectable change in abundance
Structure (SMILES): Cc1ncsc1-c1ccc([C@H](C)NC(=O)C2C[C@@H](O)CN2C(=O)[C@@H](NC(=O)CCCCC(=O)Nc2ccc(C(=O)Nc3cccc(Nc4cc(-c5c[nH]c6ccccc56)ncn4)c3)cc2)C(C)(C)C)cc1 (stereo partly drawn) [Compound 1, N1-(4-((3-((6-(1H-indol-3-yl)pyrimidin-4-yl)amino)phenyl)carbamoyl)phenyl)-N6-((2S)-1-((4R)-4-hydroxy-2-(((S)-1-(4-(4-methylthiazol-5-yl)phenyl)ethyl)carbamoyl)pyrrolidin-1-yl)-3,3-dimethyl-1-oxobutan-2-yl)adipamide]
ERF degradation, validation by proteomics analysis [4]: not validated as a confirmed degraded protein
